{
  "source": "patent US20090258045A1",
  "about": "“[…] ANTIMICROBIAL PEPTIDES” (Massachusetts Institute of Technology, priority 2008, published 2009)",
  "key": {"[1]": {"test_system": "S. aureus", "conditions": "free Ponericin; cited from earlier work"}, "[2]": {"test_system": "S. aureus", "assay": "Staphyloccocus aureus macrodilution assay", "assay_type": "cell-based, Staphylococcus aureus", "experimental": "Staphyloccocus aureus macrodilution assays. All liquid assays were performed in cation-adjusted Mueller Hinton Broth II (CMHB). Qualitative assays were performed following standard macrodilution methods as outlined by the National Committee on Clinical Laboratory Standards (Standards, N. C. f. C. L. Journal, 1999, Approved standard M26-A) with a challenge of 10^5 CFU/mL. For assays involving co-incubation with films deposited on silicon, 24-well plates were used, with 0.5 mL of liquid culture per well. Briefly, each square-cut silicon substrate (1.0 cm×1.0 cm), either bare or coated depending on the test group, was placed flat in the center of a well in a 24-well plate, polished side up. Each well was then filled with 0.50 mL of S. aureus in exponential growth phase at 10^5 CFU/mL in CMHB, completely immersing the substrate. Quantitative assays were done in 96-well plates with 150 μL of liquid culture per well, with 135 μL of test media and 15 μL of inoculation culture at 10^6 CFU/mL in CMHB. All test media were sterile-filtered through 0.2 μm membranes prior to use. […] Cell density was read at OD 600 nm in a BioTek® PowerWave™ XS Microplate Spectrophotometer with accompanying Gen5 program Version 1.00.14. […]\nAntimicrobial activity of Ponericin as released from LbL assemblies. In vitro activity of Ponericin, both in dipping solution and as released from films, were assessed against S. aureus. […]"}},
  "data": [
    {"substance": "Ponericin G1", "values": [
      {"measurement": "reported MIC", "setting": "[1]", "value": "4 to 8", "unit": "µg/mL"},
      {"measurement": "concentration needed to inhibit S. aureus proliferation", "setting": "[2]; dipping solution: free Ponericin in 0.1M sodium acetate (FIG. 7A)", "value": "11 to 22", "unit": "µg/mL"},
      {"measurement": "concentration needed to inhibit S. aureus proliferation", "setting": "[2]; film-released: elution buffer of [(Poly 1/HA)(Pon/HA)]100 (FIG. 7B)", "value": "11 to 22", "unit": "µg/mL"}
    ]}
  ]
}
